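48-hour exposure; five concentrations; linearly interpolated endpoints. The concentration for 50% growth inhibition is given as GI50.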 Calls of active or inactive are those of the source. No stated cut-off is given here; in the data, active = GI50 up to about 1.1 µM and inactive = higher.
What was measured:
Assay in all cases: growth of human tumour cells (NCI), 48 h
A549 = test system: A549
DLD-1 = test system: DLD-1
HT-29 = test system: HT-29
KM-20L2 = test system: KM-20L2
OVCAR-3 = test system: OVCAR-3
OVCAR-4 = test system: OVCAR-4
OVCAR-5 = test system: OVCAR-5
RPMI-8226 = test system: RPMI-8226
RXF 393 = test system: RXF 393
SF-295 = test system: SF-295
SK-MEL-2 = test system: SK-MEL-2
SK-MEL-5 = test system: SK-MEL-5
SN12C = test system: SN12C
SNB-19 = test system: SNB-19
SNB-78 = test system: SNB-78
SW-620 = test system: SW-620
U-251 = test system: U-251

Measured: GI50

Cc1cc(OC(=O)c2c(C)cc(OC(=O)c3c(C)cc(O)cc3O)cc2O)cc(O)c1C(=O)O [GYROPHORIC ACID]
inactive: A549 > 100 µM | DLD-1 > 100 µM | HT-29 > 100 µM | KM-20L2 > 100 µM | OVCAR-3 > 100 µM | OVCAR-4 > 100 µM | OVCAR-5 > 100 µM | RPMI-8226 > 100 µM | RXF 393 > 100 µM | SF-295 > 100 µM | SK-MEL-2 > 100 µM | SK-MEL-5 > 100 µM | SN12C > 100 µM | SNB-19 > 100 µM | SNB-78 > 100 µM | SW-620 > 100 µM | U-251 > 100 µM

Reference: ChEMBL document CHEMBL1201862, “PubChem BioAssay data set” (2004)
